EC50 data for 22 molecules are collected here from patent publication US9604964B2, “Dihydropyrazole GPR40 modulators” (BRISTOL-MYERS SQUIBB COMPANY, priority 2012, dated 2017).

The structures appear in SMILES notation.

The target in this assay is human GPR40 (Homo sapiens, UniProt O14842). In words: FDSS-based intracellular calcium assay (Human GPR40 in vitro assay). To be noted: intracellular Ca2+ response, cells expressing GPR40; read-out: hGPR40 EC50. Also noted: 3xFLAG; expressed in transfected cells. The format is cell-based. The procedure:
FDSS-based Intracellular Calcium Assay
Compounds are dissolved in DMSO and diluted to desired concentrations with assay buffer and added to the cells as 3× solution (20 μL per well). Run fluorescence/luminescence reader FDSS (Hamamatsu) to read intracellular Ca^2+ response.
(Calcium assays in cells follow changes in intracellular calcium, usually with a dye or a luminescent sensor.)

human GPR40, sequence (O14842 whole entry): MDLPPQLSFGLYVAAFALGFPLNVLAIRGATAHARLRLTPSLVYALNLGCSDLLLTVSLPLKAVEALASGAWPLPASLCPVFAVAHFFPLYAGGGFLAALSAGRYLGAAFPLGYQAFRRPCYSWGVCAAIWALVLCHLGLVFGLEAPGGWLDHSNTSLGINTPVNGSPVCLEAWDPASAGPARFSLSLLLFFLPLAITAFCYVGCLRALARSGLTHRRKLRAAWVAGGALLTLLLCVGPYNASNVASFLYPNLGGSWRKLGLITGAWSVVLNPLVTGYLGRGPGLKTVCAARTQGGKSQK

For `C[C@@H]1C(C(F)(F)F)=NN(c2ccc(OC3CCN(c4cc5c(cc4Cl)OCCO5)CC3)cc2)[C@H]1CC(=O)O` [Example B15, 2-((4S,5S)-1-(4-((1-(7-Chloro-2,3-dihydrobenzo[b][1,4]dioxin-6-yl)piperidin-4-yl)oxy)phenyl)-4-methyl-3-(trifluoromethyl)-4,5-dihydro-1H-pyrazol-5-yl)acetic acid], the EC50 (commonly the concentration that produces a half-maximal response) was found to be 0.325 µM. The result for `Cc1nc(C)c(N2CCC(Oc3ccc(N4N=C(C(F)(F)F)[C@@H](C)[C@@H]4CC(=O)O)cc3)CC2)s1` [Example B16, 2-((4S,5S)-1-(4-((1-(2,4-Dimethylthiazol-5-yl)piperidin-4-yl)oxy)phenyl)-4-methyl-3-(trifluoromethyl)-4,5-dihydro-1H-pyrazol-5-yl)acetic acid] reads 1.1 µM; that for `C[C@@H]1C(C(F)(F)F)=NN(c2ccc(OC3CCN(c4cc(-c5ncco5)ccc4F)CC3)cc2)[C@H]1CC(=O)O` [Example B17, 2-((4S,5S)-1-(4-((1-(2-Fluoro-5-(oxazol-2-yl)phenyl)piperidin-4-yl)oxy)phenyl)-4-methyl-3-(trifluoromethyl)-4,5-dihydro-1H-pyrazol-5-yl)acetic acid], 2.49 µM. As for `Cc1nc2ccc(N3CCC(Oc4ccc(N5N=C(C(F)(F)F)[C@@H](C)[C@@H]5CC(=O)O)cc4)CC3)cc2o1` [Example B18, 2-((4S,5S)-4-Methyl-1-(4-((1-(2-methylbenzo[d]oxazol-6-yl)piperidin-4-yl)oxy)phenyl)-3-(trifluoromethyl)-4,5-dihydro-1H-pyrazol-5-yl)acetic acid], the EC50 came out at 5.2 µM. Turning to `C[C@@H]1C(C(F)(F)F)=NN(c2ccc(OC3CCN(c4cccc5c4OCCO5)CC3)cc2)[C@H]1CC(=O)O` [Example B19, 2-((4S,5S)-1-(4-((1-(2,3-Dihydrobenzo[b][1,4]dioxin-5-yl)piperidin-4-yl)oxy)phenyl)-4-methyl-3-(trifluoromethyl)-4,5-dihydro-1H-pyrazol-5-yl)acetic acid], the EC50 was 6.2 µM. The result for `C[C@@H]1C(C(F)(F)F)=NN(c2ccc(OC3CCN(c4cc(-n5cccn5)ccc4F)CC3)cc2)[C@H]1CC(=O)O` [Example B20, 2-((4S,5S)-1-(4-((1-(2-Fluoro-5-(1H-pyrazol-1-yl)phenyl)piperidin-4-yl)oxy)phenyl)-4-methyl-3-(trifluoromethyl)-4,5-dihydro-1H-pyrazol-5-yl)acetic acid] reads 4.59 µM; that for `C[C@@H]1C(C(F)(F)F)=NN(c2ccc(OC3CCN(S(=O)(=O)c4ccccc4C#N)CC3)cc2)[C@H]1CC(=O)O` [Example B21], 7.95 µM; that for `C[C@@H]1C(C(F)(F)F)=NN(c2ccc(OC3CCN(S(=O)(=O)C4CCCCC4)CC3)cc2)[C@H]1CC(=O)O` [Example B22, 2-((4S,5S)-1-(4-((1-(cyclohexylsulfonyl)piperidin-4-yl)oxy)phenyl)-4-methyl-3-(trifluoromethyl)-4,5-dihydro-1H-pyrazol-5-yl)acetic acid], 1.33 µM. For the molecule `CC(C)CS(=O)(=O)N1CCC(Oc2ccc(N3N=C(C(F)(F)F)[C@@H](C)[C@@H]3CC(=O)O)cc2)CC1` [Example B23, 2-((4S,5S)-1-(4-((1-(isobutylsulfonyl)piperidin-4-yl)oxy)phenyl)-4-methyl-3-(trifluoromethyl)-4,5-dihydro-1H-pyrazol-5-yl)acetic acid], the EC50 turned out to be 2 µM. The figure for `C[C@@H]1C(C(F)(F)F)=NN(c2ccc(OC3CCN(S(=O)(=O)C4CCCC4)CC3)cc2)[C@H]1CC(=O)O` [Example B24, 2-((4S,5S)-1-(4-((1-(Cyclopentylsulfonyl)piperidin-4-yl)oxy)phenyl)-4-methyl-3-(trifluoromethyl)-4,5-dihydro-1H-pyrazol-5-yl)acetic acid] is 3.6 µM; for `C[C@@H]1C(C(F)(F)F)=NN(c2ccc(OC3CCN(S(=O)(=O)c4ccccc4C(F)(F)F)CC3)cc2)[C@H]1CC(=O)O` [Example B25, 2-((4S,5S)-4-Methyl-3-(trifluoromethyl)-1-(4-((1-((2-(trifluoromethyl)phenyl)sulfonyl)piperidin-4-yl)oxy)phenyl)-4,5-dihydro-1H-pyrazol-5-yl)acetic acid] it is 4.42 µM. The figure for `Cc1ccccc1S(=O)(=O)N1CCC(Oc2ccc(N3N=C(C(F)(F)F)[C@@H](C)[C@@H]3CC(=O)O)cc2)CC1` [Example B27, 2-((4S,5S)-4-Methyl-1-(4-((1-(o-tolylsulfonyl)piperidin-4-yl)oxy)phenyl)-3-(trifluoromethyl)-4,5-dihydro-1H-pyrazol-5-yl)acetic acid] is 4.85 µM; for `COc1ccnc(N2CCC(Oc3ccc(N4N=C(C(F)(F)F)[C@@H](C)[C@@H]4CC(=O)O)cc3)CC2)n1` [Example B28, 2-((4S,5S)-1-(4-((1-(4-methoxypyrimidin-2-yl)piperidin-4-yl)oxy)phenyl)-4-methyl-3-(trifluoromethyl)-4,5-dihydro-1H-pyrazol-5-yl)acetic acid] it is 5.27 µM; for `COc1nc(N2CCC(Oc3ccc(N4N=C(C(F)(F)F)[C@@H](C)[C@@H]4CC(=O)O)cc3)CC2)ncc1F` [Example B29, 2-((4S,5S)-1-(4-((1-(5-Fluoro-4-methoxypyrimidin-2-yl)piperidin-4-yl)oxy)phenyl)-4-methyl-3-(trifluoromethyl)-4,5-dihydro-1H-pyrazol-5-yl)acetic acid] it is 3.68 µM.

In the case of `C[C@@H]1C(C(F)(F)F)=NN(c2ccc(OCC3CN(C(=O)OC(C)(C)C)C3)cc2)[C@H]1CC(=O)O` [Example B30, 2-((4S,5S)-1-(4-((1-(tert-Butoxycarbonyl)azetidin-3-yl)methoxy)phenyl)-4-methyl-3-(trifluoromethyl)-4,5-dihydro-1H-pyrazol-5-yl)acetic acid], the EC50 amounted to 2.77 µM. In the case of `C[C@@H]1C(C(F)(F)F)=NN(c2ccc(OCC3CN(S(=O)(=O)C4CCCCC4)C3)cc2)[C@H]1CC(=O)O` [Example B31, 2-((4S,5S)-1-(4-((1-(Cyclohexylsulfonyl)azetidin-3-yl)methoxy)phenyl)-4-methyl-3-(trifluoromethyl)-4,5-dihydro-1H-pyrazol-5-yl)acetic acid], the concentration giving a half-maximal response (EC50) is 3.77 µM. As for `COc1cccc(N2CC(COc3ccc(N4N=C(C(F)(F)F)[C@@H](C)[C@@H]4CC(=O)O)cc3)C2)c1` [Example B32, 2-((4S,5S)-1-(4-((1-(3-Methoxyphenyl)azetidin-3-yl)methoxy)phenyl)-4-methyl-3-(trifluoromethyl)-4,5-dihydro-1H-pyrazol-5-yl)acetic acid], the EC50 turned out to be 1.09 µM. The result for `COc1cc(N2CC(COc3ccc(N4N=C(C(F)(F)F)[C@@H](C)[C@@H]4CC(=O)O)cc3)C2)c(Cl)cn1` [Example B33, 2-((4S,5S)-1-(4-((1-(5-chloro-2-methoxypyridin-4-yl)azetidin-3-yl)methoxy)phenyl)-4-methyl-3-(trifluoromethyl)-4,5-dihydro-1H-pyrazol-5-yl)acetic acid] reads 0.713 µM. The figure for `C[C@@H]1C(C(F)(F)F)=NN(c2ccc(OCC3CN(c4ccc5c(c4)OCO5)C3)cc2)[C@H]1CC(=O)O` [Example B34, 2-((4S,5S)-1-(4-((1-(benzo[d] [1,3]dioxol-5-yl)azetidin-3-yl)methoxy)phenyl)-4-methyl-3-(trifluoromethyl)-4,5-dihydro-1H-pyrazol-5-yl)acetic acid] is 4.76 µM; for `COc1ccc(F)c(N2CC(COc3ccc(N4N=C(C(F)(F)F)[C@@H](C)[C@@H]4CC(=O)O)cc3)C2)c1` [Example B35, 2-((4S,5S)-1-(4-((1-(2-fluoro-5-methoxyphenyl)azetidin-3-yl)methoxy)phenyl)-4-methyl-3-(trifluoromethyl)-4,5-dihydro-1H-pyrazol-5-yl)acetic acid] it is 4.76 µM; for `COc1cc(N2CC(CCc3ccc(N4N=C(C(F)(F)F)[C@@H](C)[C@@H]4CC(=O)O)cc3)C2)c(Cl)cn1` [Example B36, 2-((4S,5S)-1-(4-(2-(1-(5-chloro-2-methoxypyridin-4-yl)azetidin-3-yl)ethyl)phenyl)-4-methyl-3-(trifluoromethyl)-4,5-dihydro-1H-pyrazol-5-yl)acetic acid] it is 0.591 µM. Regarding `COc1cc(N2CCC(Oc3ccc(N4N=C(C(F)(F)F)[C@@H](C)[C@@H]4CC(=O)O)cc3)C3(CC3)C2)c(Cl)cn1` (stereo partly drawn) [Example B37, 2-((4S,5S)-1-(4-((5-(5-chloro-2-methoxypyridin-4-yl)-5-azaspiro[2.5]octan-8-yl)oxy)phenyl)-4-methyl-3-(trifluoromethyl)-4,5-dihydro-1H-pyrazol-5-yl)acetic acid], the EC50 came out at 0.774 µM.
